In PubChem BioAssay (NCI):
“And” between values parts separate entries of the source, which are not always exact repeats. Equal values may be shown once.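 Interpolation was linear, between the two tested concentrations surrounding the appropriate level; five concentrations were tested over 48 hours in 96-well plates. GI50 = concentration required for 50% inhibition of growth. TGI: total growth inhibition.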

What was measured:
Assay in all cases: growth of human tumour cells (NCI), 48 h
[1] = tested on: T-47D breast
[2] = tested on: SF-295 CNS
[3] = tested on: SR leukemia
[4] = tested on: MDA-MB-231 breast
[5] = tested on: OVCAR-3 ovarian
[6] = tested on: IGROV1 ovarian
[7] = tested on: MALME-3M melanoma
[8] = tested on: CAKI-1 renal
[9] = tested on: SK-MEL-5 melanoma
[10] = tested on: KM12 colon
[11] = tested on: HCT-15 colon
[12] = tested on: SK-MEL-28 melanoma
[13] = tested on: SF-268 CNS
[14] = tested on: SF-539 CNS
[15] = tested on: UO-31 renal
[16] = tested on: A498 renal
[17] = tested on: UACC-257 melanoma
[18] = tested on: K-562 leukemia
[19] = tested on: HCC-2998 colon
[20] = tested on: HS 578T breast
[21] = tested on: NCI-H23 lung
[22] = tested on: 786-0 renal
[23] = tested on: PC-3 prostate
[24] = tested on: CCRF-CEM leukemia
[25] = tested on: DU-145 prostate
[26] = tested on: A549 NSCLC
[27] = tested on: RPMI-8226 leukemia
[28] = tested on: MDA-MB-435
[29] = tested on: U251 CNS
[30] = tested on: OVCAR-5 ovarian
[31] = tested on: M14 melanoma
[32] = tested on: HT29 colon
[33] = tested on: HOP-62 NSCLC
[34] = tested on: UACC-62 melanoma
[35] = tested on: MOLT-4 leukemia
[36] = tested on: TK-10 renal
[37] = tested on: MCF7 breast
[38] = tested on: RXF 393 renal
[39] = tested on: SNB-75 CNS
[40] = tested on: NCI/ADR-RES ovarian
[41] = tested on: HOP-92 NSCLC
[42] = tested on: SK-OV-3 ovarian
[43] = tested on: HL-60(TB) leukemia
[44] = tested on: LOX IMVI melanoma
[45] = tested on: NCI-H226 lung
[46] = tested on: BT-549 breast
[47] = tested on: SNB-19 CNS
[48] = tested on: SK-MEL-2 melanoma
[49] = tested on: MDA-MB-468 breast
[50] = tested on: SN12C renal
[51] = tested on: EKVX NSCLC
[52] = tested on: COLO 205 colon
[53] = tested on: ACHN renal
[54] = tested on: NCI-H460 lung
[55] = tested on: HCT-116 colon
[56] = tested on: OVCAR-8 ovarian
[57] = tested on: NCI-H522 lung
[58] = tested on: OVCAR-4 ovarian
[59] = tested on: SW-620 colon

SMILES: Oc1ccc(Cl)c(Nc2ncnc3c2cnn3CC(Cl)c2ccc(Br)cc2)c1 (stereo not drawn)
- GI50 [1]: 4480 nM
- TGI [1]: 55400 nM
- GI50 [2]: 6200 nM
- TGI [2]: 27300 nM
- GI50 [3]: 6670 nM
- TGI [3]: 81600 nM
- GI50 [4]: 7290 nM
- TGI [4]: 21000 nM
- GI50 [5]: 7990 nM
- TGI [5]: 38800 nM
- GI50 [6]: 2390 nM
- TGI [6]: 8310 nM
- GI50 [7]: 12300 nM
- TGI [7]: 25100 nM
- GI50 [8]: 3720 nM
- TGI [8]: 28600 nM
- GI50 [9]: 10500 nM
- TGI [9]: 22300 nM
- GI50 [10]: 19300 nM
- TGI [10]: 42900 nM
- GI50 [11]: 4570 nM
- TGI [11]: 19400 nM
- GI50 [12]: 14900 nM
- TGI [12]: 28900 nM
- GI50 [13]: 6070 nM
- TGI [13]: 33500 nM
- GI50 [14]: 4640 nM
- TGI [14]: 18100 nM
- GI50 [15]: 2340 nM
- TGI [15]: 17000 nM
- GI50 [16]: 16200 nM
- TGI [16]: 30700 nM
- GI50 [17]: 13800 nM
- TGI [17]: 28300 nM
- GI50 [18]: 82.6 nM
- TGI [18]: 12900 nM
- GI50 [19]: 14900 nM
- TGI [19]: 29100 nM
- GI50 [20]: 1130 nM
- TGI [20]: 7950 nM
- GI50 [21]: 12600 nM
- TGI [21]: 26300 nM
- GI50 [22]: 5700 nM
- TGI [22]: 23300 nM
- GI50 [23]: 4530 nM
- TGI [23]: 35400 nM
- GI50 [24]: 13600 nM
- TGI [24]: 60100 nM
- GI50 [25]: 10600 nM
- TGI [25]: 32000 nM
- GI50 [26]: 12100 nM
- TGI [26]: 37300 nM
- GI50 [27]: 17000 nM
- TGI [27]: 93800 nM
- GI50 [28]: 11900 nM
- TGI [28]: 26800 nM
- GI50 [29]: 11300 nM
- TGI [29]: 25500 nM
- GI50 [30]: 10300 nM
- TGI [30]: 24400 nM
- GI50 [31]: 11200 nM
- TGI [31]: 24300 nM
- GI50 [32]: 13900 nM
- TGI [32]: 31900 nM
- GI50 [33]: 11700 nM
- TGI [33]: 30500 nM
- GI50 [34]: 12600 nM
- TGI [34]: 25200 nM
- GI50 [35]: 6750 nM
- TGI [35]: 37700 nM
- GI50 [36]: 13900 nM
- TGI [36]: 29000 nM
- GI50 [37]: 11100 nM
- TGI [37]: 26200 nM
- GI50 [38]: 766 nM
- TGI [38]: 7170 nM
- GI50 [39]: 1030 nM
- TGI [39]: 5580 nM
- GI50 [40]: 7470 nM
- TGI [40]: 27400 nM
- GI50 [41]: 2340 nM
- TGI [41]: 12400 nM
- GI50 [42]: 7630 nM
- TGI [42]: 31300 nM
- GI50 [43]: 23200 nM
- TGI [43]: 62200 nM
- GI50 [44]: 2090 nM
- TGI [44]: 11800 nM
- GI50 [45]: 11800 nM
- TGI [45]: 28700 nM
- GI50 [46]: 12700 nM
- TGI [46]: 25400 nM
- GI50 [47]: 12400 nM
- TGI [47]: 36000 nM
- GI50 [48]: 17500 nM
- TGI [48]: 34300 nM
- GI50 [49]: 3350 nM
- TGI [49]: 16300 nM
- GI50 [50]: 3790 nM
- TGI [50]: 18100 nM
- GI50 [51]: 11900 nM
- TGI [51]: 34600 nM
- GI50 [52]: 17700 nM
- TGI [52]: 38700 nM
- GI50 [53]: 2120 nM
- TGI [53]: 15300 nM
- GI50 [54]: 16700 nM
- TGI [54]: 36500 nM
- GI50 [55]: 7890 nM
- TGI [55]: 21400 nM
- GI50 [56]: 7970 nM
- TGI [56]: 25900 nM
- GI50 [57]: 7400 nM
- TGI [57]: 27800 nM
- GI50 [58]: 13100 nM
- TGI [58]: 54400 nM
- GI50 [59]: 21900 nM
- TGI [59]: 47400 nM

SMILES: COc1cc2cc(C(=O)N3C[C@@H](CCl)c4c3cc(OC(=O)N(CCC(=O)N3CCN(C)CC3)[C@H]3CCSSC3)c3ccccc43)[nH]c2c(OC)c1OC
- GI50 [1]: 631 nM and 696 nM
- TGI [1]: 25000 nM and 7830 nM
- GI50 [2]: 113 nM and 145 nM
- TGI [2]: 1750 nM and 545 nM
- GI50 [3]: 56.7 nM and 34.2 nM
- GI50 [4]: 516 nM and 579 nM
- TGI [4]: 1140 nM and 8190 nM
- GI50 [5]: 236 nM
- TGI [5]: 581 nM
- GI50 [6]: 436 nM and 501 nM
- GI50 [7]: 405 nM and 280 nM
- TGI [7]: 796 nM and 744 nM
- GI50 [8]: 272 nM
- TGI [8]: 4490 nM
- GI50 [9]: 327 nM
- TGI [9]: 656 nM
- GI50 [10]: 535 nM and 268 nM
- TGI [10]: 1640 nM and 1050 nM
- GI50 [11]: 271 nM and 260 nM
- TGI [11]: 1110 nM and 1430 nM
- GI50 [12]: 413 nM and 293 nM
- TGI [12]: 846 nM and 826 nM
- GI50 [13]: 403 nM and 187 nM
- GI50 [14]: 284 nM and 167 nM
- TGI [14]: 642 nM and 409 nM
- GI50 [15]: 333 nM and 221 nM
- TGI [15]: 948 nM and 545 nM
- GI50 [16]: 251 nM
- TGI [16]: 541 nM
- GI50 [17]: 475 nM and 630 nM
- TGI [17]: 1150 nM and 3710 nM
- GI50 [18]: 604 nM and 162 nM
- TGI [18]: 25000 nM and > 100000 nM
- GI50 [19]: 154 nM and 158 nM
- TGI [19]: 579 nM and 331 nM
- GI50 [20]: 689 nM and 1410 nM
- TGI [20]: 3920 nM and 6080 nM
- GI50 [21]: 75.9 nM and 55.3 nM
- TGI [21]: 358 nM and 254 nM
- GI50 [22]: 368 nM
- TGI [22]: 1340 nM
- GI50 [23]: 480 nM and 722 nM
- TGI [23]: 6150 nM and 6130 nM
- GI50 [24]: 559 nM and 219 nM
- GI50 [25]: 113 nM and 58.5 nM
- TGI [25]: 3390 nM and 1490 nM
- GI50 [26]: 393 nM
- TGI [26]: 1630 nM
- GI50 [27]: 477 nM and 222 nM
- TGI [27]: 1850 nM and 1360 nM
- GI50 [28]: 404 nM and 213 nM
- TGI [28]: 788 nM and 529 nM
- GI50 [29]: 299 nM and 164 nM
- TGI [29]: 2800 nM and 423 nM
- GI50 [30]: 560 nM
- TGI [30]: 1750 nM
- GI50 [31]: 317 nM and 192 nM
- TGI [31]: 824 nM and 545 nM
- GI50 [32]: 474 nM and 270 nM
- TGI [32]: 1730 nM and 1050 nM
- GI50 [33]: 166 nM and 110 nM
- TGI [33]: 1280 nM and 780 nM
- GI50 [34]: 259 nM and 271 nM
- TGI [34]: 587 nM and 1220 nM
- GI50 [35]: 113 nM and 89.7 nM
- GI50 [36]: 3370 nM
- TGI [36]: 11000 nM
- GI50 [37]: 55.7 nM and 35.3 nM
- TGI [37]: 652 nM and 1100 nM
- GI50 [38]: 322 nM and 149 nM
- TGI [38]: 724 nM and 297 nM
- GI50 [39]: 388 nM and 181 nM
- TGI [39]: 1080 nM and 905 nM
- GI50 [40]: 292 nM
- TGI [40]: 940 nM
- GI50 [41]: 657 nM and 346 nM
- TGI [41]: 2130 nM and 1830 nM
- GI50 [42]: 313 nM and 262 nM
- TGI [42]: 1310 nM and 714 nM
- GI50 [43]: 325 nM and 119 nM
- TGI [43]: 2790 nM and 952 nM
- GI50 [44]: 295 nM and 208 nM
- TGI [44]: 781 nM and 891 nM
- GI50 [45]: 1570 nM and 435 nM
- TGI [45]: 25000 nM and 4470 nM
- GI50 [46]: 361 nM and 228 nM
- TGI [46]: 799 nM and 989 nM
- GI50 [47]: 258 nM and 252 nM
- GI50 [48]: 417 nM and 214 nM
- TGI [48]: 777 nM and 381 nM
- GI50 [49]: 167 nM
- TGI [49]: 389 nM
- GI50 [50]: 241 nM and 286 nM
- GI50 [51]: 365 nM and 315 nM
- TGI [51]: 1040 nM and 1900 nM
- GI50 [52]: 354 nM and 342 nM
- TGI [52]: 837 nM and 1510 nM
- GI50 [53]: 83.1 nM
- TGI [53]: 571 nM
- GI50 [54]: 99.6 nM and 55.7 nM
- TGI [54]: 2580 nM and 341 nM
- GI50 [55]: 389 nM and 158 nM
- TGI [55]: 3620 nM and 558 nM
- GI50 [56]: 275 nM and 186 nM
- GI50 [57]: 433 nM and 263 nM
- TGI [57]: 1110 nM and 979 nM
- GI50 [58]: 513 nM and 464 nM
- TGI [58]: 1270 nM and 4990 nM
- GI50 [59]: 399 nM and 221 nM
- TGI [59]: 1900 nM and 911 nM
